Reference: PubChem BioAssay (NCI)
Values joined by “and” are separate entries in the source; they are usually repeats but may differ in a detail not shown here. Equal entries are not always repeated.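 Five compound concentrations were applied to cells in 96-well plates for 48 hours; endpoints were derived by simple linear interpolation of the resulting dose-response curve. GI50 is the concentration that inhibits growth by half. TGI: total growth inhibition.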

What was measured:
Assay in all cases: inhibition of tumour cell growth, NCI panel, 48 h
HOP-92 NSCLC = tested on: HOP-92 NSCLC
K-562 leukemia = tested on: K-562 leukemia
U251 CNS = tested on: U251 CNS
NCI-H522 lung = tested on: NCI-H522 lung
NCI-H23 lung = tested on: NCI-H23 lung
MCF7 breast = tested on: MCF7 breast
NCI-H460 lung = tested on: NCI-H460 lung
CAKI-1 renal = tested on: CAKI-1 renal
SN12C renal = tested on: SN12C renal
UACC-257 melanoma = tested on: UACC-257 melanoma

SMILES | GI50 (HOP-92 NSCLC) | TGI (HOP-92 NSCLC) | GI50 (K-562 leukemia) | TGI (K-562 leukemia) | GI50 (U251 CNS) | TGI (U251 CNS) | GI50 (NCI-H522 lung) | TGI (NCI-H522 lung) | GI50 (NCI-H23 lung) | TGI (NCI-H23 lung) | GI50 (MCF7 breast) | TGI (MCF7 breast) | GI50 (NCI-H460 lung) | TGI (NCI-H460 lung) | GI50 (CAKI-1 renal) | TGI (CAKI-1 renal) | GI50 (SN12C renal) | TGI (SN12C renal) | GI50 (UACC-257 melanoma) | TGI (UACC-257 melanoma)
C#CCOc1cccc(Nc2ncnc3c(NC(=O)C=C)cccc23)c1 | 13.6 µM | 42.6 µM | 7.87 µM | > 100 µM | 30.4 µM | > 100 µM | 14.1 µM | 32.6 µM | 24.8 µM | > 100 µM | 21.2 µM | > 100 µM | 27 µM | 80.4 µM | 26.4 µM | > 100 µM | 16.5 µM | 62.6 µM | 31.4 µM | > 100 µM
Nc1cc(Br)c(-c2nnc(CCC(=O)c3nc4ccccc4[nH]3)o2)c(Br)c1 | 0.499 µM | 19.9 µM | 2.89 µM | > 100 µM | 3.5 µM | > 100 µM | 2.9 µM | 16.9 µM | 3.26 µM | 36.4 µM | 3.06 µM | > 100 µM | 3.99 µM | 20.1 µM | 19.8 µM | > 100 µM | 29.5 µM | > 100 µM | 7.63 µM | > 100 µM
CC(C)[C@H](O)C(=O)N[C@@H](C)C(=O)N[C@@H]1C(=O)N(C)CCc2ccccc21 | > 100 µM | > 100 µM | > 100 µM | > 100 µM | > 100 µM | > 100 µM | > 100 µM | > 100 µM | > 100 µM | > 100 µM | > 100 µM | > 100 µM | > 100 µM | > 100 µM | > 100 µM | > 100 µM | > 100 µM | > 100 µM | > 100 µM | > 100 µM
CN(C)C(=S)SSC(=S)N(C)C | 17.3 µM and 59.5 µM and 18.4 µM | 42.8 µM and > 100 µM and 36.7 µM | – | > 100 µM and 16.5 µM | 12.6 µM | 26 µM and > 65.3 µM and 38.5 µM | – | 14.7 µM and 10.4 µM and 8.24 µM | 21.5 µM and 4.49 µM and 21 µM | 64.9 µM and 14.3 µM and 43.7 µM | 0.478 µM | 22.7 µM and 39.3 µM and > 93.5 µM | 0.365 µM and 0.324 µM and 1.43 µM | 25.2 µM and 13.6 µM and 53 µM | 15.9 µM and 61.5 µM and 21.1 µM | 31.4 µM and > 100 µM and 40.1 µM | 14.7 µM | 28.7 µM and > 46.4 µM and 54.5 µM | 15 µM and 4.06 µM and 28.4 µM | 30.5 µM and 39.9 µM and > 55.7 µM
CC(C)CC(C/C=C1/CC(CO)(COC(=O)C(C)(C)C)OC1=O)CC(C)C (stereo not drawn) | – | 18.8 µM | – | 27.4 µM and > 37.5 µM | – | 21.7 µM | – | 30 µM and 27 µM | – | 23.4 µM and 24.4 µM | – | 34.2 µM and 40.3 µM | – | 17.8 µM and 5.69 µM | 7.62 µM and 1.19 µM | 21.5 µM and 9.68 µM | – | 22.2 µM | – | 31.3 µM and 31 µM
NNCCc1ccc(NC(=O)CCCc2ccc(C(=O)Nc3ccccc3N)cc2)cc1 | 7.26 µM | > 100 µM | 3.58 µM | > 100 µM | 12 µM | > 100 µM | 8.13 µM | > 100 µM | 21 µM | > 100 µM | 6.84 µM | > 100 µM | 13.3 µM | > 100 µM | 7.99 µM | > 100 µM | 28 µM | > 100 µM | – | –
OC(c1cc(-c2ccc(C(F)(F)F)cc2)nc(C(F)(F)F)c1)C1CCCCN1 (stereo not drawn) | 1.06 µM and 2.38 µM | 2.47 µM and 9.39 µM | 1.2 µM and 1.91 µM | 2.94 µM and 4.06 µM | 1.53 µM | 2.86 µM and 3.34 µM | – | 3.19 µM and 3.27 µM | 1.68 µM and 2.39 µM | 3.15 µM and 6.12 µM | 1.61 µM | 3.08 µM and 3.42 µM | 1.81 µM | 3.4 µM and 3.95 µM | 1.48 µM | 2.81 µM and 17.7 µM | 1.79 µM and 3.13 µM | 3.19 µM and 7.37 µM | – | 3.59 µM and 3.69 µM
CN(C)CCNCCN | – | > 100 µM | – | > 100 µM | – | > 100 µM | – | > 100 µM | – | > 100 µM | – | > 100 µM | – | > 100 µM | – | > 100 µM | – | > 100 µM | – | > 100 µM
O=C1CCCN1c1ccccc1I(=O)=O | > 100 µM | > 100 µM | > 100 µM | > 100 µM | > 100 µM | > 100 µM | > 100 µM | > 100 µM | > 100 µM | > 100 µM | > 100 µM | > 100 µM | > 100 µM | > 100 µM | > 100 µM | > 100 µM | > 100 µM | > 100 µM | > 100 µM | > 100 µM
O=C(/C=C/c1ccccc1)c1ccccc1 | – | > 10 µM | – | > 7.51 µM | – | > 10 µM | – | > 10 µM | – | > 10 µM | – | > 10 µM | – | > 10 µM | – | > 10 µM | – | > 10 µM | – | > 10 µM
Cn1c(=O)c2c(nc(C(=N)SCC(=O)O)n2C)n(C)c1=O | – | > 100 µM | – | > 100 µM | – | > 100 µM | – | > 100 µM | – | > 100 µM | – | > 100 µM | – | > 100 µM | – | 99 µM | – | > 100 µM | – | > 100 µM
COc1ccc(-c2nccn2-c2ccc(OC)cc2)cc1 | 2.45 µM | > 41.7 µM | 6.43 µM | 61.4 µM | 26.3 µM | > 72.9 µM | 17 µM | 42.9 µM | 22.2 µM | 58.9 µM | 24.4 µM | > 66.1 µM | 17.9 µM | 60.7 µM | 22.9 µM | > 69.5 µM | 20.8 µM | 50.3 µM | 26 µM | > 88 µM
CCN(CC)CCCCCCNc1cccc2cc(Br)cnc12 | 2.52 µM | 9.44 µM | 2.08 µM | 5.59 µM | 5.36 µM | 17.7 µM | 1.88 µM | 4.97 µM | 5.89 µM | 20.7 µM | 3.02 µM | 11.2 µM | 4.25 µM | 16.5 µM | 2.83 µM | 12.4 µM | 5.92 µM | 21 µM | 3.28 µM | 9.36 µM
N#CCCN1C/C(=C/c2ccc(Br)cc2)C(=O)/C(=C/c2ccc(Br)cc2)C1 | 1.71 µM | 4.89 µM | 0.454 µM | > 100 µM | 0.409 µM | 1.58 µM | 1.89 µM | 3.81 µM | 2.64 µM | 7.58 µM | 0.764 µM | 10.4 µM | – | – | 2.78 µM | > 100 µM | 1.88 µM | 4.6 µM | 2.09 µM | 5.32 µM
